Test results taken from the METLIN SMRT retention time set (Domingo-Almenara et al. 2019).

Assay: gradient 5% acetonitrile 3 min, to 50% in 2 min, to 85% in 15 min, held 3 min, 100 µL/min
Conditions: column: Zorbax Extend-C18 2.1 x 50 mm; eluents: water / acetonitrile, 0.1% formic acid
How it was run: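 Mixtures of ~100 pure standards were chromatographed on a Zorbax Extend-C18 column (2.1 × 50 mm, 1.8 μm) at 100 μL/min using water and acetonitrile, each with 0.1% formic acid. Detection used a quadrupole time-of-flight mass spectrometer in positive and negative ionization mode, and data collection spanned 3 months. Retention time was obtained from adduct peaks picked computationally and each checked manually.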

Row | SMILES | RP-LC retention time
1 | CC(C)Cn1cc(CCNC(=O)c2ccc(C(F)(F)F)cc2)c2cccnc21 | 940 s
2 | Cc1c(Cl)cccc1NC(=O)NCCc1cn(CC(C)C)c2ncccc12 | 902 s
3 | COc1c(C(=O)NCc2cc(F)cc(F)c2)sc2ccc(F)cc12 | 1070 s
4 | CC1Oc2ccc(S(=O)(=O)N3CCC(C(=O)Nc4cccc(Cl)c4)CC3)cc2NC1=O (centres undefined) | 891 s
5 | COC(=O)c1cccc(N2C=C(C#N)S(=O)(=O)c3cc(F)ccc32)c1 | 872 s
6 | CCOc1ccc(NC(=O)C2CCN(S(=O)(=O)c3ccc4c(c3)NC(=O)C(CC)O4)CC2)cc1 (centres undefined) | 888 s
7 | COc1cc2c(cc1CNC(=O)COc1ccc(Cl)c(C)c1)OCCCO2 | 1010 s
8 | Cc1cn(C)c(CC(=O)NCCCN2CCCCCC2)c1C(=O)O | 593 s
9 | Cc1nnc(C2CC3(CCN(CCO)CC3)CN2CCc2ccccc2)o1 (centres undefined) | 574 s
10 | O=C(CN1CC=C(c2cnn(-c3ccccc3)c2)CC1)N1CCN(c2ccccc2)CC1 | 702 s
11 | CCc1cccc(NC(=O)N(C)CC2CCOC2)c1 (centres undefined) | 739 s
12 | CCOC(=O)c1ccc(NC(=O)N(C)Cc2nc3cc(C(=O)N(C)C)ccc3n2C)cc1 | 634 s
13 | Cc1cc(=O)n(CC(=O)Nc2ccccc2C#N)cn1 | 571 s
14 | COc1ccc(-c2n[nH]c3c2C(c2ccc(OC)c(OC)c2)NC3=O)cc1 (centres undefined) | 637 s
15 | O=C1CCC2(CNC(=O)c3cnccn3)CCCC=C2N1 (centres undefined) | 623 s
16 | COC(=O)c1ccc(NS(=O)(=O)c2cc(-c3c(C)noc3NC(C)=O)ccc2OC)cc1 | 720 s
17 | Cc1ccc(C(=O)N2CCC(N3C(=O)C(O)C34CCCCC4)CC2)s1 (centres undefined) | 678 s
18 | Cc1cc(F)ccc1NC(=O)CN1C(=O)CCCc2cc(S(=O)(=O)N3CCCCC3)ccc21 | 959 s
19 | OC(COCc1ccc(Cl)cc1)CN1CCCCC1 (centres undefined) | 580 s

Row | SMILES | RP-LC retention time
20 | Cc1noc(C)c1Cc1ccc(C(=O)NCc2nn(C)c3c2CN(C)CC3)o1 | 578 s
21 | CCC(C)NC(=O)C1CCN(S(=O)(=O)c2c(C)nn(CC(=O)Nc3ccc(C)cc3)c2C)CC1 (centres undefined) | 806 s
22 | COc1ccc2c(c1)C1(CCN(C(=O)NCCC(C)C)C1)C(=O)N2C (centres undefined) | 770 s
23 | Cn1c(N2CCCCS2(=O)=O)nc(C(=O)NCc2ccc(F)cc2)c(O)c1=O | 864 s
24 | COc1ccc(OC)c(S(=O)(=O)N2CCCC(C(=O)N3CCOCC3)C2)c1 (centres undefined) | 664 s
25 | O=S(=O)(c1ccc2c(c1)OCCO2)N1CCN(S(=O)(=O)C2CC2)CC1 | 762 s
26 | CCc1cc(=O)n(CC(=O)Nc2ccc(OC)c(F)c2)c(N2CCOCC2)n1 | 719 s
27 | COCCN1C(=O)[C@H]2CN(Cc3ccc(F)c(Br)c3)C[C@H]2C1=O | 680 s
28 | COc1cc(NC(=O)CN2CC(C)Sc3ccccc32)cc(OC)c1 (centres undefined) | 971 s
29 | Cc1cc(N2CCN(C(=O)c3ccc(N(C)C)cc3)CC2)nc2nnc(C)n12 | 579 s
30 | c1cc2c(cc1-c1noc(CCC3CCCC3)n1)nnn2CCN1CCOCC1 | 780 s
31 | O=C(C1CC1)N1CCc2sc(S(=O)(=O)N3CCN(c4ccccc4)CC3)cc2C1 | 987 s
32 | COc1ccc(Cl)cc1-c1nc(-c2ccc3oc(C)nc3c2)no1 | 1060 s
33 | CC(=O)N1CCc2cc(N3CC(C(=O)Nc4ccc(C)cc4C)CC3=O)ccc21 (centres undefined) | 786 s
34 | Cn1cccc1C(CNS(=O)(=O)c1ccc2c(c1)OCCO2)N1CCOCC1 (centres undefined) | 563 s
35 | Cc1ccc(CNC(=O)C2CCN(S(=O)(=O)c3cn(C(C)C)cn3)CC2)cc1 | 745 s
36 | Cc1ccc2c(Nc3ccc(Cl)cc3)c(-c3nc(C)no3)cnc2n1 | 785 s
37 | CCCN(C(=O)CC(=O)OC)c1nc(-c2ccc(C)cc2)cs1 | 1160 s
38 | Cc1nc2cc3c(cc2n1CC(=O)NCc1ccccc1Cl)OCCO3 | 645 s

Row | SMILES | RP-LC retention time
39 | Cc1cnc(C2CN(Cc3ccccn3)C2)n1CC1CC1 | 538 s
40 | O=C(CCl)NC1(C(=O)O)CCCC1 | 661 s
41 | COc1ccc(-c2noc(-c3nnn4c3COC(c3ccc(C)cc3C)C4)n2)c(OC)c1 (centres undefined) | 1170 s
42 | CCSc1nc2ccc(NS(=O)(=O)c3cc(F)cc(F)c3)cc2s1 | 1050 s
43 | COc1ccc(C(=O)N2CCC3(C2)C(=O)Nc2ccc(OC)cc23)c(OC)c1 (centres undefined) | 692 s
44 | O=C(CN1CCCc2nc(C3CC3)ncc2C1=O)NCc1cccs1 | 682 s
45 | O=C(NCc1ccccn1)C(=O)Nc1nccs1 | 527 s
46 | CN1CCC(NC(=O)C2CCN(c3nc4ccc(-c5ccsc5)nc4s3)CC2)CC1 | 640 s
47 | Cc1ccc(NC(=O)C2CCN(S(=O)(=O)c3cc(C(=O)N4CCCCCC4)cs3)CC2)nc1 | 754 s
48 | CN1c2ccc(Cl)cc2C(=O)NC12CCN(C(=O)c1ccc3c(c1)OCO3)CC2 | 769 s
49 | CCOC(=O)c1c(C)[nH]c(C)c1S(=O)(=O)N1CCC(C(=O)Nc2cc(Cl)ccc2C)CC1 | 890 s
50 | O=S(=O)(c1ccc(-c2nnc(C3CC3)o2)o1)N1CCN(C2CCCCC2)CC1 | 642 s
51 | Cc1cc(C)n(CCC(=O)NCC2Cn3cccc3C(=O)N2C)n1 (centres undefined) | 593 s
52 | COC(=O)c1cc(S(=O)(=O)N2CCCC2C(=O)Nc2ccc(C)cc2C)cn1C (centres undefined) | 915 s
53 | CCc1nnc(C2CN(C)CC23CCN(S(=O)(=O)c2ccc(F)c(C)c2)CC3)o1 (centres undefined) | 634 s
54 | Cc1cc(C)cc(C(=O)N2CCN(c3nc(CN4CCOCC4)cs3)CC2)c1 | 647 s
55 | Cc1cc(NC(=O)NC(=O)c2ccccc2NC(=O)C(C)N)ccc1Oc1ncc(Br)cn1 (centres undefined) | 715 s
56 | CNC(=O)[C@@H]1CN(C(=O)CCc2c(C)noc2C)C[C@H]1c1n[nH]c(C)n1 | 568 s

Results, then the compound that gave them:

Row | RP-LC retention time | SMILES
57 | 620 s | O=C(c1ccncc1)N1CCCC(OCc2nc(C3CC3)no2)C1 (centres undefined)
58 | 828 s | Cc1ccc(CC(=O)NC2CCN(c3ccc(F)cc3)C2=O)cc1 (centres undefined)
59 | 818 s | Cc1ccc(CNC(=O)N2CC=C(c3cn(C)c4ncccc34)CC2)cc1
60 | 772 s | CN(C)CCCN1c2ccccc2Sc2ccc3ccccc3c21
61 | 596 s | Cc1cccc(-c2ncccc2CNC(=O)c2ccco2)c1
62 | 588 s | Cc1cc(Nc2ccc(NC(=O)c3cnccn3)cc2)nc(N2CCCCC2)n1
63 | 592 s | COc1ccc(-c2nc(NCCN(C)C3CCCCC3)c3ccccc3n2)cc1
64 | 1090 s | CCN(CC)c1nc2cc(C(=O)NCC3CC3)ccc2c(=O)n1Cc1ccc(C)cc1
65 | 1230 s | CCCCCn1c(=O)c2ccccc2n(Cc2nc(-c3ccc(OCC)c(OC)c3)no2)c1=O
66 | 810 s | Cc1ccc(-c2cc3n(n2)CCCN(C(=O)c2ccoc2)C3)cc1
67 | 537 s | CN(C)C[C@@H]1CN(Cc2ccccc2)C[C@H]1NS(=O)(=O)c1cccnc1
68 | 745 s | O=c1cc(CN(Cc2ccccc2)Cc2ccccc2)nc2ccc(Cl)cn12
69 | 1280 s | CCN1C(=O)COc2ccc(-c3noc(-c4cccc(Br)c4)n3)cc21
70 | 811 s | Cc1ccccc1CC(=O)NC1CCN(c2ccccc2)C1=O (centres undefined)
71 | 1030 s | CC1CCN(S(=O)(=O)c2nn(C)cc2C(=O)NCC(C)c2ccccc2)CC1 (centres undefined)
72 | 762 s | Cc1cc(C)c(-c2noc(C)n2)c(NC(=O)c2ccccc2Br)n1
73 | 1260 s | Cc1ccc(-c2noc(Cc3nc(-c4ccccc4)cs3)n2)cc1

Row | RP-LC retention time | SMILES
74 | 597 s | CCOC(=O)c1c(C)oc2nc(C)nc(NC3CCN(Cc4ccccc4)CC3)c12
75 | 845 s | CCc1ccccc1NC(=O)N1CCCC1c1cc(C)no1 (centres undefined)
76 | 1010 s | Cc1cccc(-c2noc(C3CCCN3C(=O)Nc3ccccc3C)n2)c1 (centres undefined)
77 | 768 s | O=C(NCC1CN(c2ccc3c(c2)OCO3)C(=O)O1)Nc1ccccc1C(F)(F)F (centres undefined)
78 | 879 s | CCc1nnc2ccc(-c3noc(-c4ccc(F)cc4F)n3)cn12
79 | 1100 s | CCc1nc(-c2csc(S(=O)(=O)N3CCCC(C(=O)Nc4ccc(Cl)cc4C)C3)c2)no1 (centres undefined)
80 | 618 s | Cc1ccc(Cl)cc1NC(=O)CSc1nnc2c3cc(-c4ccc(F)cc4)nn3ccn12
81 | 850 s | O=C(C1=CN(c2ccc3c(c2)CCC3)c2ccccc2S1(=O)=O)N1CCOCC1
82 | 988 s | CCc1ccc(N2CC(c3nc(-c4cc(OC)c(OC)c(OC)c4)no3)CC2=O)cc1 (centres undefined)
83 | 905 s | Cn1nc(-c2nc(Cc3ccccc3)no2)c2c1CCN(C(=O)Nc1ccccc1)C2
84 | 915 s | CC(C)Oc1ccc(CNC(=O)c2nnc(-c3ccc(S(=O)(=O)N4CCOCC4)cc3)o2)cc1
85 | 730 s | CC(C)c1ccc(-c2noc(N3CCC(C(=O)NCCN4CCCC4)CC3)n2)cc1
86 | 819 s | CSc1ccc(-c2nc3ccc(Cl)cn3c2Nc2ccc3c(c2)OCCO3)cc1
87 | 1250 s | COc1ccc(-c2noc(C3(NC(=O)c4cc(C)cc(C)c4)CCCCC3)n2)cc1
88 | 1130 s | COc1cccc(C2Cn3nnc(-c4nc(-c5ccccc5)no4)c3CO2)c1 (centres undefined)
89 | 1020 s | O=C(CC(c1ccccc1)c1ccccc1)N1CC(c2nc(-c3ccccc3)no2)C1
